Consider one substance from patent US20240384250A1, “FIBROBLAST GROWTH FACTOR 23 MODULATING COMPOUNDS” (THE UAB RESEARCH FOUNDATION, priority 2021, published 2024).

In assay [1] the test system is intact hearts isolated from adult mice. Put plainly: Isolated heart contractility. Also on record: species or system mouse. The following applies: FGF23 9 ng/ml with heparin 0.06 USP/ml. As to the method: Isolated heart contractility was performed as described previously. 14,70,71 Briefly, 2- to 3-month-old male CD-1 mice were anesthetized using 3% isoflurane and hearts were carefully removed and placed into oxygenated Ringer's solution composed of 140 mM NaCl, 2.0 mM KCl, 2.5 mM CaCl2), 1.0 mM MgSO4, 1.5 mM K2HPO4, 10 mM N-2-hydroxyethylpiperazine-N-2-ethanesulfonic acid, and 10 mM glucose (pH 7.4). Atria were then removed, and the intact ventricular muscle was attached to small metallic clips hung vertically from a force transducer (ADInstruments) between bipolar platinum-stimulating electrodes and suspended in 25-ml glass tissue chambers (ADInstruments). Heart muscles were perfused with Ringer's solution continuously bubbled with 100% O2 at room temperature. Hearts were stretched to the length of maximum force development and paced at 1 Hz (5 ms pulse duration, 30-60 V; Grass Instruments SD9 Square Pulse Stimulator). After a stable baseline was obtained, hearts were treated with either vehicle or FGF23 (9 ng/ml) alone or in combination with heparin (0.06 USP/ml) while contractile force output was monitored for 30 minutes. Contractile data were recorded and analyzed with LabChart 8 software (ADInstruments). Waveform changes were analyzed for peak contraction force (in millinewtons) and maximum slope of force development and presented as fold change from baseline values.

The target in assay [2] is T1, FGF23 binding to FGFR1c (Homo sapiens, UniProt P11362+Q9GZV9).
T1 construct: Fc-coupled FGFR ectodomains were immobilized on protein A/G beads; purchased R&D Systems 2604FG025/CF or 2629FG025/CF; 658FR050
Kind of assay: Pull-down of FGF23 with Fc-FGFR on protein A/G beads with sKL, heparin or PBS. The following applies: with heparin, or alone. As to the method:
To study the interaction between Fc-tagged FGFR isoforms (Fc-FGFR), FGF isoforms, and sKL, immunoprecipitation studies were conducted. Protein A beads (6501, BioVision) and protein G beads (6511, BioVision) were used at 25 μl of a 50% stock slurry per sample in a total bead volume of 50 μl. Beads were washed 5× in activity buffer (50 mM Tris [pH 7.4], 200 mM NaCl, 0.01% Tween 20). Bead spin-down assays were all performed for 2 minutes at 5000 g. Beads were resuspended in 1 ml of activity buffer in a 1.5-ml snap cap tube. One microgram of Fc-FGFR1 to 4 was incubated with the beads for 1 hour on a bead rotator. Control samples were incubated with 2 μg of anti-FGF antibody instead of Fc-FGFR. Beads were then pelleted at 5000 g for 2 minutes and washed 5× with activity buffer. Beads were resuspended and incubated with different combinations of 500 ng of FGF, 1 μg of sKL, 1.6 United States Pharmacopeia (USP) units of heparin, or phosphate-buffered saline (PBS). Beads were incubated for 1 hour on a tube rotator, and beads were pelleted and washed as before. One hundred microliters of 1× Laemmli sample buffer (1610737, Bio-Rad) with 1.42 M 2-mercaptoethanol was added, and samples were boiled for 5 minutes. Samples were analyzed using SDS-PAGE and Western blotting.
The sample (20 μl) was loaded onto Mini-PROTEAN TGX Precast Gel 4-20% for experiments with <9 samples (4568094, Bio-Rad) or Criterion TGX Precast Gel 4-20% (5678094, Bio-Rad) for experiments with >9 samples. Gels were run in 1× Tris/Glycine/SDS buffer (1610732, Bio-Rad) at 150 V and stopped when the sample dye reached the end of the gel. Gels were removed and electrotransferred via a semi-dry cassette (1703940, Bio-Rad) in I× Tris/Glycine buffer (1610734, Bio-Rad) with 20% methanol. Gels were transferred onto polyvinylidene diflouride membranes (IPVH00010, Millipore) at 20 V for 1 hour. Membranes were then blocked in 5% dried milk with 0.5% Tween 20 diluted in Tris-buffered saline (TBST; pH 7.5) for 1 hour and probed with antibodies against specific antigens at 1:1000 in TBST with 5% dried milk. Blots were washed 3× for 5 minutes in TBST and probed with HRP-coupled secondary antibodies against specific species at 1:10,000 in TBST with 5% dried milk. Membranes were imaged on the SRX-101A X-ray film developer (Konica Minolta).

For assay [3], the target named is T2, FGF5 binding to FGFR1c (Homo sapiens, UniProt P11362).
T2 construct: a chimeric protein consisting of the FGFR1 ectodomain and the Fc region of a human IgG; purchased R&D Systems 237-F5/CF; 658FR050
Kind of assay: Plate-based binding of paracrine FGF to Fc-FGFR1c with heparin and/or sKL. Conditions: 0.4 USP heparin. The procedure:
Proteins were coated on 96-well plates (MaxiSorp; 439454, Thermo Fisher Scientific), and proteins were added to wells in 100 μl of enzyme-linked immunosorbent assay (ELISA) coating buffer (E107, Bethyl Laboratories) with a lid placed overtop and incubated at 4° C. overnight. Plates were washed 5× with 350 μl of assay buffer (50 mM Tris [pH 7.4], 200 mM NaCl, 0.01% Tween 20) on a 50 TS microplate washer (BioTek). Plates were blocked for 1 hour in 200 μl of assay buffer with 0.5% BSA. Plates were washed as before, and proteins were incubated on plates in 100 μl of assay buffer with 0.5% BSA. Proteins or heparin was incubated in orders described in the respective figure legends. Assays using FLAG-tag-based detection were incubated with anti-FLAG coupled to HRP at 1:20,000, and assays using Fc detection were incubated with anti-human Fc coupled to HRP at 1:10,000. Plates were washed as above, and 100 μl of 3,3′,5,5′-tetramethylbenzidine (TMB) substrate (E102, Bethyl Laboratories) was added for 15 to 20 minutes until positive wells developed a dark blue color. Reactions were stopped with ELISA stop solution (E115, Bethyl Laboratories) and analyzed using the Synergy HI plate reader (BioTek) at 450 nm wavelength. […] As a control to remove background absorbance values, wells were coated with an equal amount of BSA to match the amount of protein coated in experimental wells and treated the same as experimental wells. To study the effects of sKL on the binding between paracrine FGFs and FGFRs, plates were run as above except coated with paracrine FGFs. Fc-FGFR1 was preincubated with sKL or vehicle for 60 minutes, and then the combination was added to wells and the assay was run as before.

“Also recorded” adds a separate entry of the source.

T2 sequence (P11362 22-376 limits assumed): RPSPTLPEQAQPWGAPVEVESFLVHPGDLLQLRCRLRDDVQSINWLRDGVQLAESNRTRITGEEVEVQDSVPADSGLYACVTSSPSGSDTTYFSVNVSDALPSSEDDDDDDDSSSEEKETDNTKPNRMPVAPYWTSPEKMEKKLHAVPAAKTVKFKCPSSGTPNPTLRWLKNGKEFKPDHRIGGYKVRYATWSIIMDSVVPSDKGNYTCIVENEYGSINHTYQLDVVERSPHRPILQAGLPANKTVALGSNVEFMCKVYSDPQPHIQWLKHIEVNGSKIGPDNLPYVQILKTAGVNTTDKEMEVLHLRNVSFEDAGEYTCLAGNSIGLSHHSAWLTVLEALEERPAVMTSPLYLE
T1 sequence (Q9GZV9 25-251): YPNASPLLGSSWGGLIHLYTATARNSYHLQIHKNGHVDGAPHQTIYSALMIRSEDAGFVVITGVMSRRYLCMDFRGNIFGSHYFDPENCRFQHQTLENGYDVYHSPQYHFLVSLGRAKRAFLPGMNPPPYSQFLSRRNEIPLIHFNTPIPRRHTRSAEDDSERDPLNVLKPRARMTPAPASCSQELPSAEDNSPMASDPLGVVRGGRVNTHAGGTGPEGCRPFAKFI
T1 sequence (P11362 22-376 limits assumed): as the sequence (P11362 22-376 limits assumed) above

As to heparin [reference compound], the “FGF23-increased contraction force in the presence of heparin” value in assay [1] is “further increase; also recorded: further elevated”. In assay [2], the “FGF23 co-precipitation with Fc-FGFR1c” value was “weaker FGF23 binding”. Further, the “FGF5 binding to FGFR1c with heparin” value in assay [3] was “increased the binding of FGF2 and FGFS to FGFR1c”.
